The text below walks through data of patent publication US20260242393A1, “Preparation Method for and Use of Dihydrothienopyrimidine Derivative” (Innovstone Therapeutics Limited, priority 2023, published 2026).

Like-named read-outs stand apart in the source and are kept apart here. A value given as a limit tells only on which side of the number the result lay.

The test concerns the target T1, PDE4B2 (Homo sapiens, UniProt Q07343).
T1 construct: purchased BPS bioscience
The experiment in a line: In vitro PDE4B2 enzyme inhibitory activity (AMP-Glo). The format is biochemical.

The mark [1] stands for this setting: PDE4B2 enzyme inhibition, read-out: PDE4B2 IC50.
[2] abbreviates: read-out: IC50 values of PDE4B2 enzyme inhibition.

T1 sequence (Q07343 1-564 isoform Q07343-2): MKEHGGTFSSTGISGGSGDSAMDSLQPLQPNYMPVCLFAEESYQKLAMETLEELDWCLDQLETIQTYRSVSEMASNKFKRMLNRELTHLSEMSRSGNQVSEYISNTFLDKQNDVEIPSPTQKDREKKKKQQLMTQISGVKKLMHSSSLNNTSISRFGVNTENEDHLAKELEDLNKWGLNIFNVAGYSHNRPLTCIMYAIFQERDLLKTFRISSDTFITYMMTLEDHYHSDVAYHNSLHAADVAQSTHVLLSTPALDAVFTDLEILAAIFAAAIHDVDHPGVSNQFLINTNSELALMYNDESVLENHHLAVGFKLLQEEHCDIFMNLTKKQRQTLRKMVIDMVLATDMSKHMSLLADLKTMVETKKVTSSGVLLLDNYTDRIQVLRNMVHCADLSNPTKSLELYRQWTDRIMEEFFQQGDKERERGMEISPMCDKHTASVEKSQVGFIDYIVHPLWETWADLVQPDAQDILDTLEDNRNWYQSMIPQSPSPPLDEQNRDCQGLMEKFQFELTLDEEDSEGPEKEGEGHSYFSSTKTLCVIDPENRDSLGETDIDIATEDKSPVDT
Experimental: 2.1.1 Preparing stock solutions of compounds in DMSO: Compound powders were dissolved in 100% DMSO to produce 10 mM stock solutions, and oscillated in a shaker until the compounds were completely dissolved.
2.1.3 Preparing working stock solutions: a) A solution of Roflumilast (reference compound) in DMSO was diluted to 60 μM, and then serially diluted 4-fold into 10 concentration gradients. B) The solutions of the test compounds in DMSO were diluted to 200 μM, and then serially diluted 3-fold. C) A 200× positive control (60 μM Roflumilast) and a 200× vehicle control (100% DMSO) were prepared. D) The assay plate was centrifuged at 1000 rpm for 1 minute.
(1) 20 nL of compound dilution solutions were transferred with Echo 550 into each well of the assay plate.
(2) The assay plate was sealed and centrifuged at 1000 rpm for 1 minute.
(3) 2×PDE4B2/PDE4D2 was prepared in an ice-cold PDE assay buffer.
(4) 2 μL of 2×PDE4B2/PDE4D2 was added to each well of the assay plate prepared in step 2.
(5) The assay plate was sealed and allowed to equilibrate at room temperature for 10 minutes.
(6) 2× Cyclic-3′,5′-AMP was prepared in a PDE assay buffer.
7) 2 μL of 2× Cyclic-3′,5′-AMP (prepared in step 6) was added to each well of the assay plate (prepared in step 5) to initiate the reaction. The plate was incubated at room temperature for 60 minutes.
8) 4 μL AMP-Glo Reagent I was added, and the plate was incubated at room temperature for 60 minutes.
9) 8 μL AMP detection reagent was added. The plate was incubated at room temperature for 60 minutes.
10) The RLU signal was read on an Envision 2105 plate reader.

As usually defined, the IC50 is the midpoint of a concentration-inhibition curve. For `[O-][S+]1CCc2nc(N3CC(O)(c4ccc(Cl)cc4)C3)nc(NC3(CO)CCC3)c21` (racemic) [Compound 1, (R/S)-2-(3-(4-chlorophenyl)-3-hydroxyazetidin-1-yl)-4-((1-(hydroxymethyl)cyclobutyl)amino)-6,7-dihydrothieno[3,2-d]pyrimidine 5-oxide], the IC50 under setting [1] fell in the range of 2 to 5 nM.
The same measure, in the same setting: the same measure for `COc1ccc(C2(O)CN(c3nc4c(c(NC5(CO)CCC5)n3)[S+]([O-])CC4)C2)cc1` (racemic) [Compound 2, (R/S)-2-(3-hydroxy-3-(4-methoxyphenyl)azetidin-1-yl)-4-((1-(hydroxymethyl)cyclobutyl)amino)-6,7-dihydrothieno[3,2-d]pyrimidine 5-oxide]: 2 to 5 nM; for `COc1cc(C2(O)CN(c3nc4c(c(NC5(CO)CCC5)n3)[S+]([O-])CC4)C2)ccc1Cl` (racemic) [Compound 3, (R/S)-2-(3-(4-chloro-3-methoxyphenyl)-3-hydroxyazetidin-1-yl)-4-((1-(hydroxymethyl)cyclobutyl)amino)-6,7-dihydrothieno[3,2-d]pyrimidine 5-oxide]: at most 2 nM.
The same measure, in the same setting: the figure for `COc1ccc(C2(O)CN(c3nc4c(c(NC5(CO)CCC5)n3)[S+]([O-])CC4)C2)cc1Cl` (racemic) [Compound 4, (R/S)-2-(3-(3-chloro-4-methoxyphenyl)-3-hydroxyazetidin-1-yl)-4-((1-(hydroxymethyl)cyclobutyl)amino)-6,7-dihydrothieno[3,2-d]pyrimidine 5-oxide] is 2 to 5 nM.
Still for that read-out and setting: the same measure for `[O-][S+]1CCc2nc(N3CC(O)(c4ccc(C(F)(F)F)cc4)C3)nc(NC3(CO)CCC3)c21` (racemic) [Compound 7, (R/S)-2-(3-hydroxy-3-(4-(trifluoromethyl)phenyl)azetidin-1-yl)-4-((1-(hydroxymethyl)cyclobutyl)amino)-6,7-dihydrothieno[3,2-d]pyrimidine 5-oxide]: 2 to 5 nM; for `COc1ccc(C2(O)CN(c3nc4c(c(Nc5ccc(CC(=O)O)cc5)n3)[S+]([O-])CC4)C2)cc1Cl` (racemic) [Compound 8, (R/S)-2-(4-((2-(3-(3-chloro-4-methoxyphenyl)-3-hydroxyazetidin-1-yl)-5-oxido-6,7-dihydrothieno[3,2-d]pyrimidin-4-yl)amino)phenyl)acetic acid]: 2 to 5 nM.
As for `[O-][S+]1CCc2nc(N3CC=C(c4ccc(OC(F)F)cc4)C3)nc(NC3(CO)CCC3)c21` (racemic) [Compound 14, (R/S)-2-(3-(4-(difluoromethoxy)phenyl)-2,5-dihydro-1H-pyrrol-1-yl)-4-((1-(hydroxymethyl)cyclobutyl)amino)-6,7-dihydrothieno[3,2-d]pyrimidine 5-oxide], the IC50 under setting [1] was 2 to 5 nM.
Consider `[O-][S+]1CCc2nc(C3=CCN(c4ncc(Cl)cn4)CC3)nc(NC3(CO)CCC3)c21` (racemic) [Compound 16, (R/S)-2-(1-(5-chloropyrimidin-2-yl)-1,2,3,6-tetrahydropyridin-4-yl)-4-((1-(hydroxymethyl)cyclobutyl)amino)-6,7-dihydrothieno[3,2-d]pyrimidine 5-oxide], for which the IC50 under setting [1] was in the range of 2 to 5 nM.
Take `COc1ccc2c(c1)CN(c1nc3c(c(NC4(CO)CCC4)n1)[S+]([O-])CC3)C2` (racemic) [Compound 26, (R/S)-4-((1-(hydroxymethyl)cyclobutyl)amino)-2-(5-methoxyisoindolin-2-yl)-6,7-dihydrothieno[3,2-d]pyrimidine 5-oxide]: the IC50 under setting [1] lay in the range of 2 to 5 nM.
Still for that read-out and setting: the figure for `N#Cc1ccc2c(c1)CN(c1nc3c(c(NC4(CO)CCC4)n1)[S+]([O-])CC3)C2` (racemic) [Compound 27, (R/S)-2-(4-((1-(hydroxymethyl)cyclobutyl)amino)-5-oxido-6,7-dihydrothieno[3,2-d]pyrimidin-2-yl)isoindoline-5-carbonitrile] is 2 to 5 nM.
Take `CC(C)(O)c1ccc2c(c1)CN(c1nc3c(c(NC4(CO)CCC4)n1)[S+]([O-])CC3)C2` (racemic) [Compound 29, (R/S)-4-((1-(hydroxymethyl)cyclobutyl)amino)-2-(5-(2-hydroxypropan-2-yl)isoindolin-2-yl)-6,7-dihydrothieno[3,2-d]pyrimidine 5-oxide]: the IC50 under setting [1] was at most 2 nM.
`CS(=O)(=O)Nc1ccc2c(c1)CN(c1nc3c(c(NC4(CO)CCC4)n1)[S+]([O-])CC3)C2` (racemic) [Compound 31, (R/S)—N-(2-(4-((1-(hydroxymethyl)cyclobutyl)amino)-5-oxido-6,7-dihydrothieno[3,2-d]pyrimidin-2-yl)isoindolin-5-yl)methanesulfonamide]: the IC50 under setting [1] fell in the range of 2 to 5 nM.
On the same count and under the same terms, the same measure for `COc1ccc2c(c1Cl)CN(c1nc3c(c(NC4(CO)CCC4)n1)[S+]([O-])CC3)C2` (racemic) [Compound 35, (R/S)-2-(4-chloro-5-methoxyisoindolin-2-yl)-4-((1-(hydroxymethyl)cyclobutyl)amino)-6,7-dihydrothieno[3,2-d]pyrimidine 5-oxide]: 2 to 5 nM.
`COc1cc(C2(OC)CN(c3nc4c(c(NC5(CO)CCC5)n3)[S+]([O-])CC4)C2)ccc1Cl` (racemic) [Compound 79, (R/S)-2-(3-(4-chloro-3-methoxyphenyl)-3-methoxyazetidin-1-yl)-4-((1-(hydroxymethyl)cyclobutyl)amino)-6,7-dihydrothieno[3,2-d]pyrimidine 5-oxide]: the IC50 by setting is: under setting [1], at most 2 nM; under setting [2], below 1 nM.
Regarding `[O-][S+]1CCc2nc(N3CC(O)(c4ccc(Cl)c(F)c4)C3)nc(NC3(CO)CCC3)c21` (racemic) [Compound 80, (R/S)-2-(3-(4-chloro-3-fluorophenyl)-3-hydroxyazetidin-1-yl)-4-((1-(hydroxymethyl)cyclobutyl)amino)-6,7-dihydrothieno[3,2-d]pyrimidine 5-oxide], the IC50 under setting [1] was 2 to 5 nM.
Regarding `COc1cc(C2(O)CN(c3nc4c(c(NC5CCOCC5)n3)[S+]([O-])CC4)C2)ccc1Cl` (racemic) [Compound 81, (R/S)-2-(3-(4-chloro-3-methoxyphenyl)-3-hydroxyazetidin-1-yl)-4-((tetrahydro-2H-pyran-4-yl)amino)-6,7-dihydrothieno[3,2-d]pyrimidine 5-oxide], under setting [1], the IC50 is 2 to 5 nM.
Regarding `COC1(c2ccc(Cl)c(F)c2)CN(c2nc3c(c(NC4(CO)CCC4)n2)[S+]([O-])CC3)C1` (racemic) [Compound 82, (R/S)-2-(3-(4-chloro-3-fluorophenyl)-3-methoxyazetidin-1-yl)-4-((1-(hydroxymethyl)cyclobutyl)amino)-6,7-dihydrothieno[3,2-d]pyrimidine 5-oxide], the IC50 runs as follows: under setting [1], at most 2 nM; under setting [2], below 1 nM.
For `COC1(c2ccc(Cl)cc2)CN(c2nc3c(c(NC4(CO)CCC4)n2)[S+]([O-])CC3)C1` (racemic) [Compound 83, (R/S)-2-(3-(4-chlorophenyl)-3-methoxyazetidin-1-yl)-4-((1-(hydroxymethyl)cyclobutyl)amino)-6,7-dihydrothieno[3,2-d]pyrimidine 5-oxide] the same measures were at most 2 nM and below 1 nM.
On to `CC(C)(O)c1ccc2c(c1)CN(c1nc3c(c(NC4CCOCC4)n1)[S+]([O-])CC3)C2` (racemic) [Compound 84, (R/S)-2-(5-(2-hydroxypropan-2-yl)isoindolin-2-yl)-4-((tetrahydro-2H-pyran-4-yl)amino)-6,7-dihydrothieno[3,2-d]pyrimidine 5-oxide], for which the IC50 under setting [1] is at most 2 nM.
Still for that read-out and setting: the same measure for `[O-][S+]1CCc2nc(N3Cc4ccc(Cl)cc4C3)nc(NC3CCOCC3)c21` (racemic) [Compound 85, (R/S)-2-(5-chloroisoindolin-2-yl)-4-((tetrahydro-2H-pyran-4-yl)amino)-6,7-dihydrothieno[3,2-d]pyrimidine 5-oxide]: at most 2 nM.
As for `COC1(c2ccc(Cl)c(F)c2)CN(c2nc3c(c(NC4CCOCC4)n2)[S+]([O-])CC3)C1` (racemic) [Compound 86, (R/S)-2-(3-(4-chloro-3-fluorophenyl)-3-methoxyazetidin-1-yl)-4-((tetrahydro-2H-pyran-4-yl)amino)-6,7-dihydrothieno[3,2-d]pyrimidine 5-oxide], the IC50 under setting [1] was at most 2 nM and the half-inhibitory concentration (IC50) under setting [2] is below 1 nM.
`[O-][S+]1CCc2nc(N3Cc4ccc(OC(F)F)cc4C3)nc(NC3(CO)CCC3)c21` (racemic) [Compound 87, (R/S)-2-(5-(difluoromethoxy)isoindolin-2-yl)-4-((1-(hydroxymethyl)cyclobutyl)amino)-6,7-dihydrothieno[3,2-d]pyrimidine 5-oxide]: under setting [1], the IC50 fell in the range of 2 to 5 nM.
For `COC1(c2ccc(Cl)cc2)CN(c2nc3c(c(NC4CCOCC4)n2)[S+]([O-])CC3)C1` (racemic) [Compound 88, (R/S)-2-(3-(4-chlorophenyl)-3-methoxyazetidin-1-yl)-4-((tetrahydro-2H-pyran-4-yl)amino)-6,7-dihydrothieno[3,2-d]pyrimidine 5-oxide], the IC50 is, setting by setting: under setting [1], at most 2 nM; under setting [2], below 1 nM.
For `[O-][S+]1CCc2nc(N3Cc4ccc(C(F)F)cc4C3)nc(NC3(CO)CCC3)c21` (racemic) [Compound 91, (R/S)-2-(5-(difluoromethyl)isoindolin-2-yl)-4-((1-(hydroxymethyl)cyclobutyl)amino)-6,7-dihydrothieno[3,2-d]pyrimidine 5-oxide], the IC50 under setting [1] fell in the range of 2 to 5 nM.
On to `[2H]C([2H])([2H])OC1(c2ccc(Cl)cc2)CN(c2nc3c(c(NC4(CO)CCC4)n2)[S+]([O-])CC3)C1` (racemic) [Compound 92, (R/S)-2-(3-(4-chlorophenyl)-3-(methoxy-d3)azetidin-1-yl)-4-((1-(hydroxymethyl)cyclobutyl)amino)-6,7-dihydrothieno[3,2-d]pyrimidine 5-oxide], for which the IC50 is, setting by setting: under setting [1], at most 2 nM; under setting [2], below 1 nM.
As to `[2H]C([2H])([2H])OC1(c2ccc(Cl)cc2)CN(c2nc3c(c(NC4CCOCC4)n2)[S+]([O-])CC3)C1` (racemic) [Compound 94, (R/S)-2-(3-(4-chlorophenyl)-3-(methoxy-d3)azetidin-1-yl)-4-((tetrahydro-2H-pyran-4-yl)amino)-6,7-dihydrothieno[3,2-d]pyrimidine 5-oxide], the IC50 reads like this: under setting [1], at most 2 nM; under setting [2], below 1 nM.
